Test results from patent publication US20260356834A1, “ANTICONVULSIVE COMPOUNDS AND USES THEREOF” (Jazz Pharmaceuticals Research UK Limite, priority 2023, published 2026).
“And” between values parts separate entries of the source, which are not always exact repeats. Equal entries are not always repeated. Marks after values point to notes of the source that are not given here.

Tested on: C57BL/6J mice
Assay: mouse maximal electroshock seizure threshold model (MEST)
Format: in vivo
Protocol: Vehicle=1:2:17 ethanol:Solutol® (Kolliphor® HS 15):saline: 1 mL of ethanol and 2 mL of solutol were warmed to 60 °C and 17 mL of 0.9% saline was added slowly. […]
Vehicle=0.5% HPMC and 0.1% Tween 80:0.5% HPMC and 0.1% Tween 80 in water.

[1] = 10 mg/kg p.o., 30 min, HPMC vehicle
[2] = 10 mg/kg p.o., 30 min, vs HPMC vehicle
[3] = 50 mg/kg p.o., 30 min, HPMC vehicle

| Compound | CC50 +/− SEM (1 mg/kg i.p., 15 min, 1:2:17 ethanol:Solutol:saline) | Change from vehicle (CC50) (1 mg/kg i.p., 15 min, vs 1:2:17 ethanol:Solutol:saline vehicle) | CC50 +/− SEM (5 mg/kg i.p., 15 min, 1:2:17 ethanol:Solutol:saline) | Change from vehicle (CC50) (5 mg/kg i.p., 15 min, vs 1:2:17 ethanol:Solutol:saline vehicle) | CC50 +/− SEM [1] | Change from vehicle (CC50) [2] | CC50 +/− SEM (30 mg/kg i.p., 30 min, 1:2:17 ethanol:Solutol:saline) | Change from vehicle (CC50) (30 mg/kg i.p., 30 min, vs 1:2:17 ethanol:Solutol:saline vehicle) | CC50 +/− SEM [3] | Change from vehicle (CC50) (50 mg/kg p.o., 30 min, vs HPMC vehicle) | CC50 +/− SEM (60 mg/kg i.p., 30 min, 1:2:17 ethanol:Solutol:saline) | Change from vehicle (CC50) (60 mg/kg i.p., 30 min, vs 1:2:17 ethanol:Solutol:saline vehicle) | CC50 +/− SEM (5 mg/kg p.o., 15 min, HPMC vehicle) | Change from vehicle (CC50) (5 mg/kg p.o., 15 min, vs HPMC vehicle) | CC50 +/− SEM (25 mg/kg p.o., 15 min, HPMC vehicle) | Change from vehicle (CC50) (25 mg/kg p.o., 15 min, vs HPMC vehicle) | CC50 +/− SEM (25 mg/kg p.o., 30 min, HPMC vehicle) | Change from vehicle (CC50) (25 mg/kg p.o., 30 min, vs HPMC vehicle) | CC50 +/− SEM (100 mg/kg p.o., 30 min, HPMC vehicle) | Change from vehicle (CC50) (100 mg/kg p.o., 30 min, vs HPMC vehicle) |
| --- | --- | --- | --- | --- | --- | --- | --- | --- | --- | --- | --- | --- | --- | --- | --- | --- | --- | --- | --- | --- |
| CCCc1cc(O)c(-c2c(C)ccn3ccnc23)c(O)c1 [Compound 2, 2-(7-Methylimidazo[1,2-a]pyridin-8-yl)-5-propylbenzene-1,3-diol] | 26.0 ± 0.4 mA | 11%^### | 29.4 ± 0.9 mA | 26%^### | 27.0 ± 0.7 mA | 17%*** | 38.2 ± 1.5 mA | 64%^### | 38.2 ± 0.5 mA | 66%*** | 59.5 ± 2.6 mA | 155%^### | – | – | – | – | – | – | – | – |
| CCCc1cc(O)c(-c2c(C)c(Cl)cn3ccnc23)c(O)c1 [Compound 4, 2-(6-Chloro-7-methylimidazo[1,2-a]pyridin-8-yl)-5-propylbenzene-1,3-diol] | – | – | – | – | 22.5 ± 0.3 mA | 14% | – | – | 92.5 ± 3.2 mA and 125.0 ± 33.4 mA | – | – | – | 23.5 ± 2.1 mA | 11% | 27.5 ± 1.3 mA | 32%** | 60.8 ± 2.9 mA | 132%*** | 200.0 ± 3.7 mA | 860%*** |
